Experimental data from patent publication US20060135494A1, “Methods of treating injuries of the nervous system associated with hemorrhage” (priority 2002, published 2006).

Assays:
Format in all cases: in vivo
[1] = test system: Bcl-2, Bcl-xL, Bax; assay: Bcl-2 family protein (immunoblot) and mRNA (RT-PCR) in ICH rat brain; conditions: TUDCA 10-200 mg/kg bw, ipsilateral hemisphere
Text: All animals received humane care in compliance with the institute's guidelines as outlined in “Guide for the Care and Use of Laboratory Animals” prepared by the National Academy of Sciences and published by the National Institutes of Health (NIH publication no. 86-23, revised 1985). Female Sprague-Dawley rats (250-300 grams (g); Harlan Sprague-Dawley, Inc., Indianapolis, Ind.) were anesthesized with an intramuscular injection of a mixture of ketamine and xylazine and set in supine in a Kopf headholder. The right carotid artery, external and internal branches, was exposed and the distal end of the external carotid freed and retracted to line with the internal carotid. A PE-10 polyethylene tube (Becton-Dickinson, Sparks, Md.) was then introduced from the external into the internal carotid artery, and the former was ligated to hold the tube. TUDCA (Calbiochem-Novabiochem Corp., San Diego, Calif.) was dissolved in phosphate buffer, pH 7.4 at […] milligrams per milliliter (mg/ml). Saline or TUDCA solution (1 milliliter per kilogram body weight (ml/kg bw)) were injected directly into the internal carotid artery, within 5 minutes. Different concentrations of TUDCA (10, 50, 100, and 200 mg/kg bw) were administered 1 hour prior to, or 1, 3, and 6 hours after collagenase injection. The polyethylene tube was finally removed, the end of the external carotid artery cauterized, and the wound closed. To induce stroke injury, the animals were placed in a stereotaxic apparatus and ICH induced by collagenase infusion (Rosenberg et al., Stroke 1990;21:801-807 and Chesney et al., Stroke 1995;26:312-316). In brief, a midline incision was made through the scalp to expose the skull. […] (0.5 microliters per minute (μL/min)) of saline containing 0.5 unit (U) bacterial collagenase (type VII; Sigma Chemical Co., St. Louis, Mo.) was made stereotaxically into the striatum with a 10-μl Hamilton syringe at the following coordinates: 0.4 millimeter (mm) anterior and 3.0 mm lateral to bregma and 5.0 mm ventral to the cortical surface. Once the infusion was complete, the Hamilton syringe was left in place for 3 minutes. Body temperature was maintained at 37° C. with a CMA/150 temperature controller throughout the surgery. The rats recovered from surgery in a cage containing food and heated by an incandescent light bulb. Neurological testing was performed at 2 days after induction of ICH. The animals were then sacrificed, and the brains removed and frozen at −70° C. for either serial cryostat sectioning, or RNA and protein extraction. In a subset of animals, serum and brain samples were collected for bile acid analysis.
Changes in Bcl-2 family expression were determined by RT-PCR. Total RNA was extracted from brain tissue using the TRIZOL reagent from Life Technologies, Inc. (Grand Island, N.Y.). For RT-PCR, 5 μg of total RNA was reverse-transcribed using oligo(dT) (IDT, Inc., Coralville, Iowa) and SUPERSCRIPT II reverse transcriptase (Life Technologies Inc.). Specific oligonucleotide primer pairs were incubated with cDNA template for PCR amplification using the Expand High Fidelity PCR System from Roche Diagnostics, GmbH. […] Amplified PCR products were analyzed by agarose gel electrophoresis and ethidium bromide staining. […]

[2] = test system: TUNEL-positive (apoptotic) cells in hemisphere ipsilateral to ICH; assay: TUNEL staining of apoptotic cells in ICH rat brain
Text: All animals received humane care in compliance with the institute's guidelines as outlined in “Guide for the Care and Use of Laboratory Animals” prepared by the National Academy of Sciences and published by the National Institutes of Health (NIH publication no. 86-23, revised 1985). Female Sprague-Dawley rats (250-300 grams (g); Harlan Sprague-Dawley, Inc., Indianapolis, Ind.) were anesthesized with an intramuscular injection of a mixture of ketamine and xylazine and set in supine in a Kopf headholder. The right carotid artery, external and internal branches, was exposed and the distal end of the external carotid freed and retracted to line with the internal carotid. A PE-10 polyethylene tube (Becton-Dickinson, Sparks, Md.) was then introduced from the external into the internal carotid artery, and the former was ligated to hold the tube. TUDCA (Calbiochem-Novabiochem Corp., San Diego, Calif.) was dissolved in phosphate buffer, pH 7.4 at 400 milligrams per milliliter (mg/ml). Saline or TUDCA solution (1 milliliter per kilogram body weight (ml/kg bw)) were injected directly into the internal carotid artery, within 5 minutes. Different concentrations of TUDCA (10, 50, 100, and 200 mg/kg bw) were administered 1 hour prior to, or 1, 3, and 6 hours after collagenase injection. The polyethylene tube was finally removed, the end of the external carotid artery cauterized, and the wound closed. To induce stroke injury, the animals were placed in a stereotaxic apparatus and ICH induced by collagenase infusion (Rosenberg et al., Stroke 1990;21:801-807 and Chesney et al., Stroke 1995;26:312-316). In brief, a midline incision was made through the scalp to expose the skull. […]
At 2 days after collagenase infusion, rats were sacrificed for terminal deoxynucleotidyltransferase-mediated dUTP nick end labeling (TUNEL) of apoptotic cells. […] The number of TUNEL-positive cells was counted on a computer screen grid from at least three random fields (400×) within the region adjacent to the hemorrhagic core for each animal.

[3] = test system: phosphorylated Akt-1 Ser473, phosphorylated Bad Ser-136; assay: Immunoblotting of phosphorylated Akt-1 and phosphorylated Bad in ICH rat brain
Text: All animals received humane care in compliance with the institute's guidelines as outlined in “Guide for the Care and Use of Laboratory Animals” prepared by the National Academy of Sciences and published by the National Institutes of Health (NIH publication no. 86-23, revised 1985). Female Sprague-Dawley rats (250-300 grams (g); Harlan Sprague-Dawley, Inc., Indianapolis, Ind.) were anesthesized with an intramuscular injection of a mixture of ketamine and xylazine and set in supine in a Kopf headholder. The right carotid artery, external and internal branches, was exposed and the distal end of the external carotid freed and retracted to line with the internal carotid. A PE-10 polyethylene tube (Becton-Dickinson, Sparks, Md.) was then introduced from the external into the internal carotid artery, and the former was ligated to hold the tube. TUDCA (Calbiochem-Novabiochem Corp., San Diego, Calif.) was dissolved in phosphate buffer, pH 7.4 at 400 milligrams per milliliter (mg/ml). Saline or TUDCA solution (1 milliliter per kilogram body weight (ml/kg bw)) were injected directly into the internal carotid artery, within 5 minutes. […]
Bcl-2 family, NF-κB, IκB, p-Akt, and p-Bad protein levels were determined from total protein homogenates separated by 12% sodium dodecyl sulfate polyacrylamide gel electrophoresis (SDS-PAGE). […]

## C[C@H](CCC(=O)NCCS(=O)(=O)O)[C@H]1CC[C@H]2[C@@H]3[C@@H](O)C[C@@H]4C[C@H](O)CC[C@]4(C)[C@H]3CC[C@]12C [TUDCA, tauroursodeoxycholic acid]
[1]
  Bax protein: returned to contralateral hemisphere values
  Bcl-XL mRNA (RT-PCR, words): decreased
  Bcl-xL protein levels: slightly diminished
  transcriptional activation of Bcl-2 (mRNA, RT-PCR, words): further increased
[1]; dose-response study
  Bcl-2 protein levels: remained elevated
[2]; 100 mg/kg bw TUDCA 1 hour before collagenase, ipsilateral hemisphere, vehicle almost 30%
  number of apoptotic cells (apoptotic versus total cells): approximately 10%
[2]; 100 mg/kg bw TUDCA, time-course 1 hour before to 6 hours after collagenase
  TUNEL staining versus vehicle-injected animals: remained markedly lower
[2]; TUDCA at greater dosages (than 100 mg/kg bw), 1 hour before collagenase
  reduction of apoptosis: > 65%
[3]; brain of rats receiving TUDCA
  levels of phosphorylated Bad compared with untreated sham controls: ~2 fold
[3]; hemisphere ipsilateral to ICH, TUDCA 10-200 mg/kg bw
  expression of phosphorylated form of Akt-1: largely restored
